Patent US10442763B2, “EBNA1 inhibitors and methods using same” (priority 2015, dated 2019)

Target: T1, His-EBNA1 (DNA binding domain of EBNA1, amino acids 459-607) (Epstein-Barr virus, UniProt P03211)
T1 construct: made in house; host or cells: E. coli
Experiment: Inhibition of 5'-biotin-oPL4624 binding to His-EBNA1 using Alpha Screen technology
Procedure: Inhibition of 5′-Biotin-oPL4624 Binding to his-EBNA1 Using Alpha Screen Technology
Assays were performed using the DNA binding domain of EBNA1 (amino acids 459-607), which was His-tagged (His-EBNA1) and the self-complementary biotinylated (bt) oligonucleotide with the sequence 5′-bt-[…]-ATGCTACCC-3′ (bt-oPL4624; or 5′-bt-SEQ ID NO: 1). The protein was expressed in E. coli and purified according to Barwell, et al., 1995, J Biol Chem. 270:20556-9.). The bt-oPL4624 oligonucleotide was purchased from Integrated DNA Technologies, Inc (IDT). AlphaScreen donor, acceptor beads and white, opaque 384-well assay plates were purchased from PerkinElmer, Inc.
Assays contained 15 nM His-EBNA1, 0.2 nM bt-oPL4624, 5 μg/mL AlphaScreen streptavidin donor beads and nickel chelate acceptor beads, and a series of concentrations of test compound ranging from 3.2 nM to 100 μM in a total volume of 40 μL assay buffer (25 mM Tris, pH 7.2, 160 mM NaCl, 1 mM MgCl2). His-EBNA1 (30 nM) and bt-oPL4624 (0.4 nM) were preincubated with 10 μg/mL nickel chelate AlphaScreen acceptor bead, or 10 μg/mL streptavidin AlphaScreen donor bead, respectively, for 30 minutes at room temperature in assay buffer. Twenty microliters of His-EBNA1/acceptor bead mix and bt-oPL4624/donor bead mix were transferred to assay plates containing 0.4 μL of 1:3 serial dilutions of test compounds previously prepared in DMSO at concentrations ranging from 0.32 μM to 10 mM. Non-specific binding was determined with 5 μg/mL AlphaScreen acceptor bead in the absence of His-EBNA1. After 2 hr incubation at room temperature, the AlphaScreen signal was measured on the Envision plate reader (PerkinElmer, Inc.) at 680 nm excitation and 570 nm emission. Inhibition values at each concentration of test compound were determined by setting 100% equal to raw data values in the absence of EBNA1 and 0% equal to the raw data values in the presence of EBNA1. Nonlinear regression fits of the inhibition values to a one-site dose-response equation were performed using GraphPad Prism.

T1 sequence (P03211 459-607): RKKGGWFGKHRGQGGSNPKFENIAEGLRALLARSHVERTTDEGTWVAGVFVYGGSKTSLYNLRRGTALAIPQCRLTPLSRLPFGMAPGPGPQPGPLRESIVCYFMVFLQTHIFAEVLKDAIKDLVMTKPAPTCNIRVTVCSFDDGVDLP

| SMILES | IC50 [µM] |
| --- | --- |
| CC(C)S(=O)(=O)N1Cc2ccc(C#Cc3cccc(C(=O)O)c3-c3ccc4cc[nH]c4c3)cc2C1 [Entry 57] | 1 to 10 |
| CS(=O)(=O)N1CCC(N2CCc3ccc(C#Cc4cccc(C(=O)O)c4-c4ccc5cc[nH]c5c4)cc3C2)C1 (centres unmarked) [Entry 58] | 10 to 100 |
| CS(=O)(=O)N1CCC(CN2CCc3cc(C#Cc4cccc(C(=O)O)c4-c4ccc5cc[nH]c5c4)ccc3C2)CC1 [Entry 59] | 10 to 100 |
| CS(=O)(=O)N1CC(N2CCc3cc(C#Cc4cccc(C(=O)O)c4-c4ccc5cc[nH]c5c4)ccc3C2)C1 [Entry 60] | 10 to 100 |
| CS(=O)(=O)N1CCC(CN2CCc3cc(C#Cc4cccc(C(=O)O)c4-c4ccc5cc[nH]c5c4)ccc3C2)C1 (centres unmarked) [Entry 61] | 10 to 100 |
| CS(=O)(=O)N1CCC(CN2CCc3ccc(C#Cc4cccc(C(=O)O)c4-c4ccc5cc[nH]c5c4)cc3C2)C1 (centres unmarked) [Entry 62] | 10 to 100 |
| CC(=O)N1CCC(CN2CCc3ccc(C#Cc4cccc(C(=O)O)c4-c4ccc5cc[nH]c5c4)cc3C2)C1 (centres unmarked) [Entry 63] | 10 to 100 |
| CS(=O)(=O)N1CC(CN2CCc3cc(C#Cc4cccc(C(=O)O)c4-c4ccc5cc[nH]c5c4)ccc3C2)C1 [Entry 64] | 10 to 100 |
| CS(=O)(=O)N1CC(CN2CCc3ccc(C#Cc4cccc(C(=O)O)c4-c4ccc5cc[nH]c5c4)cc3C2)C1 [Entry 65] | 10 to 100 |
| CS(=O)(=O)Nc1cccc(CN2CCc3cc(C#Cc4cccc(C(=O)O)c4-c4ccc5cc[nH]c5c4)ccc3C2)c1 [Entry 66] | 1 to 10 |
| CS(=O)(=O)Nc1cccc(CN2CCc3ccc(C#Cc4cccc(C(=O)O)c4-c4ccc5cc[nH]c5c4)cc3C2)c1 [Entry 67] | 1 to 10 |
| CS(=O)(=O)N1CCC(N2Cc3ccc(C#Cc4cccc(C(=O)O)c4-c4ccc5cc[nH]c5c4)cc3C2)C1 (centres unmarked) [Entry 68] | 1 to 10 |
| CS(=O)(=O)N1CC(N2Cc3ccc(C#Cc4cccc(C(=O)O)c4-c4ccc5cc[nH]c5c4)cc3C2)C1 [Entry 69] | 1 to 10 |
| CS(=O)(=O)N1CCC(CN2Cc3ccc(C#Cc4cccc(C(=O)O)c4-c4ccc5cc[nH]c5c4)cc3C2)C1 (centres unmarked) [Entry 70] | 1 to 10 |
| CS(=O)(=O)N1CC(CN2Cc3ccc(C#Cc4cccc(C(=O)O)c4-c4ccc5cc[nH]c5c4)cc3C2)C1 [Entry 71] | 10 to 100 |
| CS(=O)(=O)N1CCC(CN2Cc3ccc(C#Cc4cccc(C(=O)O)c4-c4ccc5cc[nH]c5c4)cc3C2)CC1 [Entry 72] | 10 to 100 |
| CS(=O)(=O)N1CCc2ccc(C#Cc3cccc(C(=O)O)c3-c3ccc4cc[nH]c4c3)cc2C1 [Entry 73] | 1 to 10 |
| CC(C)S(=O)(=O)N1CCc2ccc(C#Cc3cccc(C(=O)O)c3-c3ccc4cc[nH]c4c3)cc2C1 [Entry 74] | 1 to 10 |
| CCC(=O)N1CCc2ccc(C#Cc3cccc(C(=O)O)c3-c3ccc4cc[nH]c4c3)cc2C1 [Entry 75] | 10 to 100 |
| CS(=O)(=O)N1CCc2cc(C#Cc3cccc(C(=O)O)c3-c3ccc4cc[nH]c4c3)ccc2C1 [Entry 76] | 1 to 10 |
| CC(C)S(=O)(=O)N1CCc2cc(C#Cc3cccc(C(=O)O)c3-c3ccc4cc[nH]c4c3)ccc2C1 [Entry 77] | 1 to 10 |
| CC(=O)N1CCc2cc(C#Cc3cccc(C(=O)O)c3-c3ccc4cc[nH]c4c3)ccc2C1 [Entry 78] | 1 to 10 |

| SMILES | IC50 [µM] |
| --- | --- |
| CCC(=O)N1CCc2cc(C#Cc3cccc(C(=O)O)c3-c3ccc4cc[nH]c4c3)ccc2C1 [Entry 79] | 1 to 10 |
| N#Cc1cccc(OCc2ccc(C#Cc3cccc(C(=O)O)c3-c3ccc4cc[nH]c4c3)cc2)c1 [Entry 81] | 1 to 10 |
| NC(=O)c1cccc(OCc2ccc(C#Cc3cccc(C(=O)O)c3-c3ccc4cc[nH]c4c3)cc2)c1 [Entry 82] | 1 to 10 |
| O=C(O)c1cccc(C#Cc2ccc(COc3ccc(C(F)(F)F)cc3)cc2)c1-c1ccc2cc[nH]c2c1 [Entry 83] | 1 to 10 |
| O=C(O)c1cccc(C#Cc2ccc(COc3cccc(C(F)(F)F)c3)cc2)c1-c1ccc2cc[nH]c2c1 [Entry 84] | 1 to 10 |
| COc1ccc(OCc2ccc(C#Cc3cccc(C(=O)O)c3-c3ccc4cc[nH]c4c3)cc2)cc1 [Entry 85] | 1 to 10 |
| NC(=O)c1ccc(OCc2ccc(C#Cc3cccc(C(=O)O)c3-c3ccc4cc[nH]c4c3)cc2)cc1 [Entry 86] | 1 to 10 |
| COc1cccc(OCc2ccc(C#Cc3cccc(C(=O)O)c3-c3ccc4cc[nH]c4c3)cc2)c1 [Entry 87] | 1 to 10 |
| O=C(O)c1cccc(C#Cc2ccc(COc3ccccc3)cc2)c1-c1ccc2cc[nH]c2c1 [Entry 88] | 1 to 10 |
| O=C(O)c1cccc(C#Cc2ccc(COc3ccccc3F)cc2)c1-c1ccc2cc[nH]c2c1 [Entry 89] | 1 to 10 |
| O=C(O)c1cccc(C#Cc2ccc(COc3cccnc3)cc2)c1-c1ccc2cc[nH]c2c1 [Entry 90] | 1 to 10 |
| O=C(O)c1cccc(C#Cc2ccc(COc3cccc(Cl)c3)cc2)c1-c1ccc2cc[nH]c2c1 [Entry 91] | 1 to 10 |
| O=C(O)c1cccc(C#Cc2ccc(COc3ccc(Cl)c(Cl)c3)cc2)c1-c1ccc2cc[nH]c2c1 [Entry 92] | 1 to 10 |
| O=C(O)c1cccc(C#Cc2ccc(COc3ccccc3C(F)(F)F)cc2)c1-c1ccc2cc[nH]c2c1 [Entry 93] | 1 to 10 |
| N#Cc1ccccc1OCc1ccc(C#Cc2cccc(C(=O)O)c2-c2ccc3cc[nH]c3c2)cc1 [Entry 94] | 1 to 10 |
| CS(=O)(=O)c1ccc(OCc2ccc(C#Cc3cccc(C(=O)O)c3-c3ccc4cc[nH]c4c3)cc2)cc1 [Entry 95] | 1 to 10 |
| O=C(O)c1cccc(C#Cc2ccc(COc3cncnc3)cc2)c1-c1ccc2cc[nH]c2c1 [Entry 96] | 1 to 10 |
| CS(=O)(=O)c1ccccc1OCc1ccc(C#Cc2cccc(C(=O)O)c2-c2ccc3cc[nH]c3c2)cc1 [Entry 97] | 1 to 10 |
| CS(=O)(=O)c1cccc(OCc2ccc(C#Cc3cccc(C(=O)O)c3-c3ccc4cc[nH]c4c3)cc2)c1 [Entry 98] | 1 to 10 |
| CS(=O)(=O)Nc1cccc(-c2cccc(C#Cc3cccc(C(=O)O)c3-c3ccc4cc[nH]c4c3)c2)c1 [Entry 99] | 1 to 10 |
| O=C(O)c1cccc(C#Cc2ccc(OC3CCOCC3)nc2)c1-c1ccc2cc[nH]c2c1 [Entry 100] | 1 to 10 |
| CCCNC(=O)c1cc2ccc(C#Cc3cccc(C(=O)O)c3-c3ccc4cc[nH]c4c3)cc2[nH]1 [Entry 101] | 1 to 10 |

| SMILES | IC50 [µM] |
| --- | --- |
| O=C(O)c1cccc(C#Cc2cccc(CN3CCc4ccccc4C3)c2)c1-c1ccc2cc[nH]c2c1 [Entry 102] | 1 to 10 |
| N#Cc1cc(C#Cc2cccc(C(=O)O)c2-c2ccc3cc[nH]c3c2)ccc1OC1CCOCC1 [Entry 103] | 1 to 10 |
| CCOC(=O)N1CCN(Cc2cccc(C#Cc3cccc(C(=O)O)c3-c3ccc4cc[nH]c4c3)c2)CC1 [Entry 104] | 10 to 100 |
| O=C(O)c1cccc(C#Cc2ccc(C3(CO)COC3)cc2)c1-c1ccc2cc[nH]c2c1 [Entry 105] | 1 to 10 |
| Nc1cc(-c2cccc(C#Cc3cccc(C(=O)O)c3-c3ccc4cc[nH]c4c3)c2)n[nH]1 [Entry 106] | 1 to 10 |
| O=C(O)c1cccc(C#Cc2cccc(-c3cnco3)c2)c1-c1ccc2cc[nH]c2c1 [Entry 107] | 1 to 10 |
| O=C(O)c1cccc(C#Cc2ccc(C(=O)C3CCOCC3)cc2)c1-c1ccc2cc[nH]c2c1 [Entry 108] | 1 to 10 |
| O=C(O)c1cccc(C#Cc2ccccc2)c1-c1ccc2cc[nH]c2c1F [Entry 109] | 10 to 100 |
| O=C(O)c1cccc(C#Cc2ccccc2)c1-c1ccc2ncsc2c1 [Entry 110] | 10 to 100 |
| O=C(O)c1cccc(C#Cc2ccccc2)c1-c1ccc2scnc2c1 [Entry 111] | 10 to 100 |
| Cc1nc2cc(-c3c(C#Cc4ccccc4)cccc3C(=O)O)ccc2s1 [Entry 112] | 10 to 100 |
| O=C(O)c1cccc(C#Cc2ccccc2)c1-c1cc2[nH]ccc2cc1F [Entry 113] | 1 to 10 |
| O=C(O)c1cccc(C#Cc2ccccc2)c1-c1cc2cc[nH]c2cc1F [Entry 114] | 10 to 100 |
| O=C(O)c1cccc(C#Cc2ccccc2)c1-c1cnc2ncccc2c1 [Entry 115] | 100 to 1000 |
| Cn1ccc2ccc(-c3c(C#Cc4ccccc4)cccc3C(=O)O)nc21 [Entry 116] | 10 to 100 |
| O=C(O)c1cccc(C#Cc2ccccc2)c1-c1ccc2cccnc2n1 [Entry 117] | 10 to 100 |
| O=C(O)c1cccc(C#Cc2ccccc2)c1-c1ccc2cc[nH]c2n1 [Entry 118] | 100 to 1000 |
| COc1cc(-c2c(C#Cc3ccccc3)cccc2C(=O)O)cc2[nH]ccc12 [Entry 119] | 1 to 10 |
| CC(C)(O)c1ccc(C#Cc2cccc(C(=O)O)c2-c2ccc3cc[nH]c3c2)cc1 [Entry 120] | 1 to 10 |
| Nc1nc(-c2ccc(C#Cc3cccc(C(=O)O)c3-c3ccc4cc[nH]c4c3)cc2)cs1 [Entry 121] | 1 to 10 |
| NS(=O)(=O)c1cccc(C#Cc2cccc(C(=O)O)c2-c2ccc3cc[nH]c3c2)c1 [Entry 122] | 10 to 100 |
